The text below walks through data of patent US20260130924A1, “COMPOSITIONS AND METHODS OF TREATING SUBJECTS WITH BRCA1 MUTATION OR DEFICIENCY” (BOARD OF REGENTS, THE UNIVERSITY OF TEXAS SYSTEM, priority 2022, published 2026).

What all share (type): cell-based, human
One experiment deals with VDAC3-KO cells. As to the kind of experiment: FIN-induced ferroptosis in VDAC3-KO cells. Conditions: VDAC3 sg cells versus control. The method, then: (§1) Knockout of BRCA1, BRCA2, VDAC3, GPX4, ECAD, 53BP1, and NCOA4 in human cell lines was performed using single guide RNAs (sgRNAs) and the CRISPR-Cas9 expression system as previously described. Briefly, sgRNAs were cloned into the lentiviral LentiGuide vector. The sequences of sgRNAs used in the current study are listed in SEQ ID NOs 1-23. LentiGuide clones were transfected into HEK293T cells with a psPAX2 packaging plasmid and pMD2.G-expressing plasmid. Cells were infected with lentivirus with 0.8 μg/mL polybrene and selected with puromycin (1 μg/mL, InvivoGen) or blasticidin (2 μg/mL, InvivoGen), followed by Western blot analysis to confirm target gene deletion. To maintain GPX4 knockout cells, we added 1 μM ferrostatin-1 into the media.
Viable cells were measured using Cell Counting Kit-8 (CCK-8, Dojindo) as previously described. Briefly, cells were seeded onto 96-well plates and subsequently treated with indicated agents. […] The absorbance at a wavelength of 450 nm was determined using a FLUOstar Omega microplate reader (BMG Labtech). The combination effects were assessed with Bliss independence model and the score is defined as “observed combination effect” minus “expected additive effect”.
Cell death was measured by propidium iodide (Roche) staining using a flow cytometer, as previously described. […] The percentage of the propidium iodide-positive dead cells was determined using the flow cytometer BD Accuri C6 (BD Biosciences) or Attune NXT Flow Cytometer (ThermoFisher) with an FL2 detector. A minimum of 5,000 single cells were analyzed per well.
As previously described C11-BODIPY 581/591 (Invitrogen) was used for lipid peroxidation, MitoPerOx (Abcam) for mitochondrial lipid peroxidation, and CM-H2DCFDA (ThermoFisher) for ROS measurements. […] After staining with 2.5 μM C11-BODIPY 581/591, 2.5 μM MitoPerOx, or 4 μM CM-H2DCFDA for 20 minutes, cells were analyzed using the flow cytometer BD Accuri C6 (BD Biosciences) or Attune NxT Flow Cytometer (ThermoFisher) with a 488-nm laser on an FL1 detector. A minimum of 5,000 single cells were analyzed per well.

Experiment [1] deals with BRCA2 sgRNA infected HT1080 cells. Briefly: FIN sensitivity of BRCA2 sgRNA-infected HT1080 cells. The following applies: BRCA2 sg HT1080 versus control. The procedure:
as §1
(§2) Viable cells were measured using Cell Counting Kit-8 (CCK-8, Dojindo) as previously described. Briefly, cells were seeded onto 96-well plates and subsequently treated with indicated agents. Next, cells were exposed to 10 μL of CCK-8 reagent (100 μL of medium per well) for 1 hour at 37° C. with 5% CO2 in an incubator. The absorbance at a wavelength of 450 nm was determined using a FLUOstar Omega microplate reader (BMG Labtech). The combination effects were assessed with Bliss independence model and the score is defined as “observed combination effect” minus “expected additive effect”.

Experiment [2] concerns BRCA1 sgRNA-infected (BRCA1 sg) cells. Briefly: FIN-induced lipid peroxidation and ferroptosis in BRCA1 sgRNA-infected cells. The following applies: for effect of BRCA1 deficiency on the lipid peroxidation and ferroptosis induced by the compound: BRCA1 sg cells versus control; for effect on RSL3-induced cell death in BRCA1 sg cells: co-treatment with RSL3. The procedure:
as §1, §2
(§3) Cell death was measured by propidium iodide (Roche) staining using a flow cytometer, as previously described. Briefly, cells were seeded onto 6- or 12-well plates and subsequently treated with indicated agents. For GPX4 knockout cells, ferrostatin-1 was removed from the culture media. Next, cells were collected (including floating dead cells) and stained with 5 μg/mL propidium iodide. The percentage of the propidium iodide-positive dead cells was determined using the flow cytometer BD Accuri C6 (BD Biosciences) or Attune NXT Flow Cytometer (ThermoFisher) with an FL2 detector. A minimum of 5,000 single cells were analyzed per well.
(§4) As previously described C11-BODIPY 581/591 (Invitrogen) was used for lipid peroxidation, MitoPerOx (Abcam) for mitochondrial lipid peroxidation, and CM-H2DCFDA (ThermoFisher) for ROS measurements. Briefly, cells were seeded on 6- or 12-well plates and subsequently treated with indicated agents. After staining with 2.5 μM C11-BODIPY 581/591, 2.5 μM MitoPerOx, or 4 μM CM-H2DCFDA for 20 minutes, cells were analyzed using the flow cytometer BD Accuri C6 (BD Biosciences) or Attune NxT Flow Cytometer (ThermoFisher) with a 488-nm laser on an FL1 detector. A minimum of 5,000 single cells were analyzed per well.

Experiment [3] relates to WT, BRCA1- or VDAC3-deficient cells. As to the kind of experiment: Rescue of Erastin-induced ferroptosis by antioxidants (cell viability). The following applies: for effect on Erastin-induced ferroptosis: wild-type (WT), BRCA1- or VDAC3-deficient cells. The procedure: as §2
For another experiment, the system named is NRF2 and GPX4. Briefly: NRF2 and GPX4 protein levels (western blotting). The following applies: for GPX4 levels: BRCA1-mutant SUM149 cells. The procedure:
Cell pellets were lysed using immunoprecipitation lysis buffer (Fisher Scientific) or NP-40 buffer containing complete mini protease inhibitors (Roche). Protein concentrations were detected by a Bicinchoninic Acid Protein Assay (Thermo Scientific) using a FLUOstar Omega microplate reader (BMG Labtech). Immunoprecipitation and Western blot analysis were conducted as previously described. The primary antibodies and concentrations used in the current study included the followed: GPX4 (1:1,000, MAB5457, R&D systems), BRCA1 (1:1,000, 14823, Cell Signaling), BRCA2 (1:1,000, MAB2476-SP, R&D Systems), DHODH (1:1,000, 14877-1-AP, Proteintech), ACSL4 (1:1,000, sc-271800, Santa Cruz), FSP1 (1:1,000, 20886-1-AP, Proteintech), VDAC1 (1:1,000, 66345-1-Ig, Proteintech), VDAC2 (1:1,000, 66388-1-Ig, Proteintech), VDAC3 (1:1,000, 55260-1-AP, Proteintech), SLC7A11 (1:1,000, 12691, Cell Signaling), NCOA4 (1:1,000, 66849, Cell Signaling), vinculin (1:10000; […], Sigma), β-actin (1:1,000, 3700, Cell Signaling), LC3B (1:5000, 3868, Cell Signaling), 53BP1 (1:5000, NB100-304, Novus Biologicals), E-Cadherin (1:1000, 3195, Cell Signaling), and tubulin (1:5000, 2144, Cell Signaling).
For orientation: A western blot detects proteins with antibodies after separation by electrophoresis.

The subject of another experiment is SUM149 and HS578T cells. Briefly: ROS-related cell death in SUM149 and HS578T cells (cell viability). The method, then: as §2
Experiment [4] deals with BRCA1-mutant cancer cells (SUM149, HCC1937). As to the kind of experiment: PARPi+GPX4i combination-induced lipid peroxidation and cell death. Conditions: for effect on cell death induced by PARP inhibitor+GPX4 inhibitor combination: BRCA1-mutant cells. The method, then:
as §3, §4

The subject of the next experiment is NCOA4. As to the kind of experiment: NCOA4 expression after PARPi treatment (western blotting). Conditions: SUM149 and HCC1937 cells. The procedure: Cell pellets were lysed using immunoprecipitation lysis buffer (Fisher Scientific) or NP-40 buffer containing complete mini protease inhibitors (Roche). Protein concentrations were detected by a Bicinchoninic Acid Protein Assay (Thermo Scientific) using a FLUOstar Omega microplate reader (BMG Labtech). Immunoprecipitation and Western blot analysis were conducted as previously described. The primary antibodies and concentrations used in the current study included the followed: GPX4 (1:1,000, MAB5457, R&D systems), BRCA1 (1:1,000, 14823, Cell Signaling), BRCA2 (1:1,000, MAB2476-SP, R&D Systems), DHODH (1:1,000, 14877-1-AP, Proteintech), ACSL4 (1:1,000, sc-271800, Santa Cruz), FSP1 (1:1,000, 20886-1-AP, Proteintech), VDAC1 (1:1,000, 66345-1-Ig, Proteintech), VDAC2 (1:1,000, 66388-1-Ig, Proteintech), VDAC3 (1:1,000, 55260-1-AP, Proteintech), SLC7A11 (1:1,000, 12691, Cell Signaling), NCOA4 (1:1,000, 66849, Cell Signaling), vinculin (1:10000; V4505, Sigma), β-actin (1:1,000, 3700, Cell Signaling), LC3B (1:5000, 3868, Cell Signaling), 53BP1 (1:5000, NB100-304, Novus Biologicals), E-Cadherin (1:1000, 3195, Cell Signaling), and tubulin (1:5000, 2144, Cell Signaling).

Where [5] appears, read: BRCA1 sgRNA infected SKOV3 cells.

“Also recorded” adds a separate entry of the source.

Consider `CC(C)Oc1ccc(C(=O)Cn2ccnc2)cc1-n1c(CN2CCN(C(=O)COc3ccc(Cl)cc3)CC2)nc2ccccc2c1=O` [IKE, imidazole ketone erastin], for which the “effect of VDAC3 deletion on the lipid peroxidation, ferroptosis or sensitivity induced by the compound” value in the experiment on VDAC3-KO cells is on record as “largely abolished”. For the same compound, the “effect of BRCA2 depletion on cellular sensitivity to the compound” value in experiment [1] is on record as “did not affect”. In experiment [2], the “effect of BRCA1 deficiency on the lipid peroxidation and ferroptosis induced by the compound” value is “remarkably repressed”.

Turning to `CC1(C)CC(NC(=O)C[P+](c2ccccc2)(c2ccccc2)c2ccccc2)CC(C)(C)N1[O]` [MitoTEMPO], the “effect on cell viability of Erastin-treated cells” value was “did not provide a protective effect” in experiment [3] (BRCA1- or VDAC3-deficient counterparts) and “largely restored cell viability” in experiment [3] (WT cells). As to `CC(=O)N[C@@H](CS)C(=O)O` [NAC, N-acetyl-1-cysteine], the “effect on PARP inhibitor-induced NRF2 and GPX4 induction” value in the experiment with NRF2 and GPX4 (BRCA1-WT HS578T cells) is listed as “abolished”. Further, the “effect on PARP inhibitor-induced cell killing” value in the experiment on SUM149 and HS578T cells (BRCA1-deficient SUM149 cells) is given as “partially restored; also recorded: suppressed”. In the case of `CN1C(=O)NC(Cc2c[nH]c3c(Cl)cccc23)C1=O` (centres unmarked) [Nec-1s], the “effect on cell death induced by PARP inhibitor+GPX4 inhibitor combination” value in experiment [4] is recorded as “not”. On to `CC(C)(C)OO` [TBH, tert-butyl hydroperoxide], for which the “cell death in BRCA1-deficient versus BRCA1-proficient cells” value with SUM149 and HS578T cells (SUM149 or BRCA1 sg HS578T cells compared with HS578T cells) is “induced more cell death”.

Take `CC1(C)CCCC(C)(C)N1[O]` [TEMPO]: in experiment [3], the “effect on Erastin-induced ferroptosis” value was “completely suppressed”. For the compound `CCOC(=O)c1ccc(NC2CCCCC2)c(N)c1` [ferrostatin-1], the “effect on RSL3-induced cell death in BRCA1 sg cells” value in experiment [2] is recorded as “abolished”. In addition, the “effect on cell death induced by PARP inhibitor+GPX4 inhibitor combination” value in experiment [4] was “largely abolished”. In addition, the “effect on Erastin-induced ferroptosis” value in experiment [3] is listed as “completely suppressed”.

For `NC(=O)c1cccc2cn(-c3ccc([C@@H]4CCCNC4)cc3)nc12` [niraparib], in the experiment with NCOA4, the NCOA4 expression result is “significantly induced”.

For the compound `O=C(O)c1cc(/N=N/c2ccc(S(=O)(=O)Nc3ccccn3)cc2)ccc1O` [sulfasalazine], the “effect of VDAC3 deletion on the lipid peroxidation, ferroptosis or sensitivity induced by the compound” value in the experiment with VDAC3-KO cells is listed as “did not affect”. Besides, the “effect of BRCA1 deficiency on the lipid peroxidation and ferroptosis induced by the compound” value in experiment [2] is given as “did not affect”. Take `C[S+]([O-])CCCCN=C=S` (centres unmarked) [sulforaphane]: the GPX4 levels result with NRF2 and GPX4 is given as “increased GPX4 levels”. Take `CC(C)(C)c1cc(O)ccc1O` [tert-butylhydroquinone]: the GPX4 levels entry in the experiment with NRF2 and GPX4 is reported as “increased GPX4 levels”. In addition, in the experiment on NRF2 and GPX4 (setting [5]), the “NRF2 and GPX4 levels” value was “induced both NRF2 and GPX4 levels”. The “effect on RSL3-induced ferroptosis” value in experiment [2] (setting [5]) was “rendered these cells resistant to RSL3-induced ferroptosis”. For the same compound, the “effect on ferroptosis induced by olaparib+RSL3 combination” value in experiment [4] (SUM149 cells) is “suppressed”. Z-VAD: the “effect on RSL3-induced cell death in BRCA1 sg cells” value in experiment [2] was “not”. The “effect on cell death induced by PARP inhibitor+GPX4 inhibitor combination” value in experiment [4] was “not”.
